Measured values published in patent US9782379B2, “Use of protectin DX for the stimulation of muscular IL-6 secretion” (Universite Laval, priority 2013, dated 2017).

Assays:
[1] = system: J774A.1 murine macrophages; assay: macrophages treated with palmitate in vitro; format: cell-based; details: 400 μM palmitate, 16 hours
Protocol: J774A.1 murine macrophages were maintained in DMEM (10% FBS) until 80% confluence. A 2 mM palmitate solution or methanol vehicle in alpha-MEM (12% BSA) was added to fresh DMEM (10% FBS) to give a final concentration of 400 μM palmitate. Concomitantly, PDX, RvE1, RvD1 (10 or 100 nM, Cayman chemical), or vehicle was added to the media. After 16 hours, the media was collected and cells were lysed as described for the studies in C2C12 myotubes.
(§1) Snap frozen gastrocnemius muscle and liver from mice were pulverized in liquid nitrogen then lysed overnight at 4° C. in the lysis buffer described for the C2C12 myotube experiments. Immunoblotting of myotube, macrophage, liver and muscle lysates was then performed as previously described^5. Briefly, 50 ug of protein was loaded onto a 7.5% acrylamide gel, subjected to SDS-PAGE then transferred onto nitrocellulose membranes. Membranes were then blocked and probed with the appropriate antibodies. Antibodies for p-Akt ser473, p-JNK thr183/tyr185, JNK, p-AMPK thr172, AMPK, p-STAT-3 ser727 and STAT-3 were obtained from Cell Signaling Technology (MA, USA). Antibodies for total Akt and iNOS were from Santa Cruz Biotechnology (CA, USA) and BD Transduction Laboratories™ (Canada) respectively.
(§2) Chemokines and cytokines were quantified in macrophage media, or mouse plasma using the MILLIPLEX™ MAP mouse cytokine/chemokine kit (Millipore Corporation, MA, USA). Nitrite accumulation in media was determined by Greiss assay as previously described^25. Plasma insulin levels were assessed by RIA (Linco, MI, USA). FFA were measured using an enzymatic colorimetric assay (Wako Chemicals, VA, USA). Skeletal muscle and liver IL-6 were quantified using the mouse IL-6 ELISA kit from R&D systems. Total plasma adiponectin was determined using the ELISA from ALPCO.

C2C12 myotubes = assay: IL-6 expression and release and AMPK phosphorylation in cultured C2C12 myotubes; format: cell-based
Protocol: C2C12 myoblasts were maintained in DMEM containing 10% FBS. Differentiation to myotubes was initiated by addition of DMEM containing 2% horse serum. The experiment was conducted 5 days after the addition of the differentiation media. Immediately prior to the commencement of experiments fresh media was added to the cells. Then vehicle or PDX (10, 100, and 1000 nM) was added to the appropriate wells. 30 and 120 minutes after the addition of PDX media was collected and frozen for IL-6 quantification and cells were washed in ice cold PBS. For extraction of mRNA cells were then lysed and scraped in 300 μl of RLT buffer (QIAGEN). For examination of AMPK activity cells were lysed and scraped in 200 μl of ice cold lysis buffer containing 50 mM HEPES pH7.5, 150 mM NaCl, 1 mM EGTA, 20 mM b-glycerophosphate, 1% NP40, 10 mM NaF, 2 mM Na3VO4, 1× protease inhibitor cocktail (Sigma).
as §1
RNA was extracted from C2C12 myotubes using an RNeasy® mini kit from QIAGEN. RNA from homogenized liver tissue was extracted using an RNeasy® fibrous tissue mini kit from QIAGEN. RNA was then reverse transcribed to cDNA using the high-capacity cDNA reverse transcription kit from applied biosystems. Real-time PCR for Ppargc1, Pck1, G6Pc, and GAPDH was then performed using Taqman assay on demand probes and primers from Applied Biosystems in a CFX96 real-time system from BIO-RAD. The relative expression of genes of interest was then determined by normalization to the housekeeping gene GAPDH using the comparative CT method for relative gene expression^30.
as §2

J77A4 macrophages = assay: IL-6 release from cultured macrophages in the absence of palmitate stimulation; format: cell-based, murine
Excerpt: (a-b) Skeletal muscle and liver IL-6 protein expression. (c) Total plasma adiponectin. (d) Immunoblots for pAMPK thr172 and total AMPK in skeletal muscle. (e) Immunoblots for pSTAT-3 ser727 and total STAT-3 in liver. Quantification of densitometry analyses for immunoblots are shown below the representative gels. In each case lanes were run on the same gel but were noncontiguous. (f-h) Relative mRNA expression for Ppargc1, Pck1 and G6Pc in liver. All genes were normalized to GAPDH using the delta delta CT method. All data are mean±SEM, n=6, *P<0.05, **P<0.01 vs Saline; ^†P<0.05, ^††P<0.01vs Lipid. (i) IL-6 in media of C2C12 myotubes exposed to PDX for 2 h. (j) IL-6 mRNA expression in C2C12 myotubes exposed to PDX for 2 h. (k) Immunoblots for pAMPK thr172 and total AMPK in C2C12 myotubes exposed to PDX for 2 h. Quantification of densitometry analyses for immunoblots are shown below the representative gels. Lanes were run on the same gel but were noncontiguous. Data are mean±SEM of three independent experiments. *P<0.05, **P<0.01 vs vehicle. (I) IL-6 in media of C2C12 myotubes exposed to Veh, or 100 nM of PDX, PD1, 8(S),15(s)-DiHETE, or RvD1. Data are mean±SEM of three independent experiments. **P<0.01 vs vehicle. (m) IL-6 in media of J77A4 macrophages treated with Veh, LPS, or PDX (10, 100, or 1000 nM) for 30 min, 2 h and 8 h. (n) Immunoblots for pAMPK thr172 and total AMPK in C2C12 myotubes exposed to PDX for 2h. Quantification of densitometry analyses for immunoblots are shown below the representative gels. Data are mean±SEM of three independent experiments. **P<0.01 vs vehicle.
In order to address the dichotomy in PDX's effect on IL-6 release from muscle versus macrophages, we next examined the impact of PDX on IL-6 release from cultured macrophages in the absence of palmitate stimulation (FIG. 5m). […] Since activation of AMPK represses inflammatory cytokine production in macrophages^19 this may explain the opposing effect of PDX on IL-6 expression and release in skeletal myotubes and activated macrophages.

[2] = highest dose, within 2 h, P<0.01

CC/C=C\C[C@H](O)/C=C/C=C\C=C\[C@@H](O)C/C=C\C/C=C\CCC(=O)O [PDX, 10S,17S-dihydroxy-docosa-4Z,7Z,11E,13Z,15E,19Z-hexaeonic acid]
iNOS and JNK activation [1]: effectively suppresses | lipid-induced IL-6 production [1]: actually suppresses | lipid-induced secretion of CCL2/MCP-1, CCL5/RANTES, TNFα, IL-2, and IL-10 ([1]; PDX 10 or 100 nM): effectively suppresses | IL-6 release from muscle cells (C2C12 myotubes; 100 nM of each lipid mediator vs vehicle): prompted IL-6 release | AMPK phosphorylation (C2C12 myotubes; 30 minutes): promotes AMPK phosphorylation | IL-6 release in the media (C2C12 myotubes; 30 minutes): no IL-6 release can be detected | phosphorylation of AMPK (C2C12 myotubes; 2 h, P<0.05): detected | increase in IL-6 mRNA expression (C2C12 myotubes; [2]): more than 2 fold | increase in IL-6 secretion (accumulation in media) (C2C12 myotubes; [2]): more than 2 fold | AMPK phosphorylation (J77A4 macrophages; P<0.01): promote AMPK phosphorylation | IL-6 mRNA expression (J77A4 macrophages; no palmitate): does not stimulate | IL-6 release (J77A4 macrophages; no palmitate, PDX 10, 100, or 1000 nM for 30 min, 2 h and 8 h): does not stimulate
